According to ChEMBL document CHEMBL1201862, “PubChem BioAssay data set” (2004):
Active and inactive are the calls of the source.

Columns and labels:
[1] = target: Photoreceptor-specific nuclear receptor (Homo sapiens, UniProt Q9Y5X4); assay type: functional;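 also: potency for compounds that break the NR2E3 corepressor complex and count as activators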
[2] = target: Peroxisome proliferator-activated receptor gamma/Nuclear receptor corepressor 2 (Homo sapiens, UniProt P37231+Q9Y618); assay type: functional
[3] = target: T1, Replicative DNA helicase DnaB (Mycobacterium tuberculosis, UniProt P9WMR3); assay: DnaB intein splicing inhibitors, dose response, biochemical, cell-free fluorescence (AID 449749); assay type: functional
T1 sequence (P9WMR3 whole entry): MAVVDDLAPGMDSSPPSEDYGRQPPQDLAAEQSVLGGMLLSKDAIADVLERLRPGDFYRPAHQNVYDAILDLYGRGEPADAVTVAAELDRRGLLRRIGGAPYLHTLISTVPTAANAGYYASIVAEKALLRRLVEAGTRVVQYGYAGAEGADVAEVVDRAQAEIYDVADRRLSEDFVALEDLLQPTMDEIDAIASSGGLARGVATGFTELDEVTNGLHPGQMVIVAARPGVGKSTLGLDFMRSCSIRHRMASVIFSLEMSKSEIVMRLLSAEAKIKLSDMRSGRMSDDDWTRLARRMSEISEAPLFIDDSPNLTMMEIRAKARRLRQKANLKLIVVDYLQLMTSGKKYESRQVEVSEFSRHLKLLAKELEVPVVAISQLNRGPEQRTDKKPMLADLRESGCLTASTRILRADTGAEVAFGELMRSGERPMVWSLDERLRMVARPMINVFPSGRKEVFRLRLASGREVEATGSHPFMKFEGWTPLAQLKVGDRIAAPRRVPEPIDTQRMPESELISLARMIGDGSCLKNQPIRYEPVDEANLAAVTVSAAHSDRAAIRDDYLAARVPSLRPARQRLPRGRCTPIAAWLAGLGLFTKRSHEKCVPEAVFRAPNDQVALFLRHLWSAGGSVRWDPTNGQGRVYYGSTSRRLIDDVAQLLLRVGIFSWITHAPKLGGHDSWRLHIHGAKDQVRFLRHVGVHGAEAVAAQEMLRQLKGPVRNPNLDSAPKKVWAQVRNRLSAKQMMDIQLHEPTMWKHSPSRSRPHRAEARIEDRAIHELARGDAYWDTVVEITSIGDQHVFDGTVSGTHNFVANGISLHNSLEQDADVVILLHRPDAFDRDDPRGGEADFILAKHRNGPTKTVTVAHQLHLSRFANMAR

Protein RecA = target: T2, Protein RecA (Mycobacterium tuberculosis, UniProt P9WHJ3); assay: Fluorescence Cell-Free Homogeneous Dose Retest to Identify Inhibitors of RecA-Intein Splicing Activity. [Related pubchem assays (depositor defined):AID2097, AID2223, AID489010, AID492950]; assay type: functional
T2 sequence (P9WHJ3 whole entry): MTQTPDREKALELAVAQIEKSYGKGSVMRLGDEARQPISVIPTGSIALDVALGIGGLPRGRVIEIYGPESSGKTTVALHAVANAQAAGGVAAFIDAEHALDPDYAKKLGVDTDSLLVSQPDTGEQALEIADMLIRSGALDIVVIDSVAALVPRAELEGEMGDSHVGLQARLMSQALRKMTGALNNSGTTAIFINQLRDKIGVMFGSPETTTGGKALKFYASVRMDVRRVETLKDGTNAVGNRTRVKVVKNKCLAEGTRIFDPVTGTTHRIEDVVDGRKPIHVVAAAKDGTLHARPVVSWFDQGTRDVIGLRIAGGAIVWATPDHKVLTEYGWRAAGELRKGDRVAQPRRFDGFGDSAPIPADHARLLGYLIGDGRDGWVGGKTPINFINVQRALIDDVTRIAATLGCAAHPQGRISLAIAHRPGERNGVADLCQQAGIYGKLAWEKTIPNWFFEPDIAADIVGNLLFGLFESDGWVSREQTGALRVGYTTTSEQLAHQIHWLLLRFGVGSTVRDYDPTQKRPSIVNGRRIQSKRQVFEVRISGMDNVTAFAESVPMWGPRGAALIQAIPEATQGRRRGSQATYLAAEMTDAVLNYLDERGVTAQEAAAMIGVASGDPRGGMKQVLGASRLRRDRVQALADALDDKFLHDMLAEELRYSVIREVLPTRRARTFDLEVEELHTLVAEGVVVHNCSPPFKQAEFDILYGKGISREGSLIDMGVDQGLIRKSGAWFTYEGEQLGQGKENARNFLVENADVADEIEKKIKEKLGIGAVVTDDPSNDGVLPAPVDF

[4] = mitochondrial function rescue without frataxin homolog – Friedreich's ataxia, plus single-dose screen, dose response (AID 1465); assay type: functional;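 also: yeast depleted of Yfh1p frataxin homolog grown on glycerol needing respiration; WST-1 tetrazolium dye reduction as measure of cellular dehydrogenase metabolic activity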
Bcl-2-like protein 1 = Bcl-2-like protein 1 (Homo sapiens, UniProt Q07817); assay: blockers of BCLXL peptide binding – biochemical, fluorescence polarization, 1536-well, selectivity assay for MCL1 inhibitor project, dose response (AID 2218)
[5] = target: T3, Induced myeloid leukemia cell differentiation protein Mcl-1 (Homo sapiens, UniProt Q07820); assay type: functional
[6] = CCR5-tropic HIV-1 fusion blockers – cell-based, CCR5-tropic Env, dose response (AID 2279); assay type: functional
[7] = A Cell Based Secondary Assay To Explore Cytotoxicity of Compounds that Sensitize Mycobacterium Tuberculosis to Beta-Lactam Antibiotics.; assay type: functional
[8] = target: T3, Induced myeloid leukemia cell differentiation protein Mcl-1; assay: blockers of MCL1 binding to BIM peptide – biochemical, fluorescence polarization, BIM-BH3 peptide, 1536-well, dose response (AID 2217)
Bcl-2-like protein 10 = Bcl-2-like protein 10 (Homo sapiens, UniProt Q9HD36); assay: Concentration-response of Bcl-B inhibitors by biochemical FP with TR3 (AID 1243); assay type: functional
[9] = target: T4, Neuropeptide Y receptor type 2 (Homo sapiens, UniProt P49146); assay: Fluorescence-based cell-based high-throughput dose response assay for agonists of NPY-Y2. [Related pubchem assays: 1703 (Screening assay (CNGC inhibitors).), 1359 (Screening assay (NPY-Y2 potentiators or agonists).), 1304 (Screening assay (NPY-Y1 potentiators or agonists).), 1710 (Screening assay (NPY-Y2 agonists).), 1791 (Summary AID.)]; assay type: functional
T4 sequence (P49146 whole entry): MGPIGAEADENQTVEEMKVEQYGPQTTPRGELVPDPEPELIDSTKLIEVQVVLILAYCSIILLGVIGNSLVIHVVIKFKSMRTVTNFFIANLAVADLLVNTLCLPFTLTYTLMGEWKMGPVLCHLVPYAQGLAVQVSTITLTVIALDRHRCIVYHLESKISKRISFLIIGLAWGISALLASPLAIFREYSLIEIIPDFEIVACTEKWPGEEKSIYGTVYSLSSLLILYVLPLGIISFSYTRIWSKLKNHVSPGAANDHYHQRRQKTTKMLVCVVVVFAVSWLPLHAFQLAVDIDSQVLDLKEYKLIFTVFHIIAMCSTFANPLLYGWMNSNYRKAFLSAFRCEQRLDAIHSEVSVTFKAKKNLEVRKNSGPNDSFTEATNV

HEK293 = assay: Fluorescence-based counterscreen for potentiators or agonists of NPY-Y2: cell-based high-throughput dose response assay to identify inhibitors of cyclic nucleotide gated ion channel (CNGC) activity. In this assay, the parental HEK293 cell line transfected with a cyclic-nucleotide gated ion channel (CNGC)-based cAMP sensor is used to measure inhibition of isoproterenol-induced CNGC activity by test compound.; assay type: functional; details: Homo sapiens
[10] = target: T5, Neuropeptide Y receptor type 1 (Homo sapiens, UniProt P25929); assay: Fluorescence-based counterscreen for agonists of NPY-Y2: cell-based high-throughput dose response assay for agonists of NPY-Y1.; assay type: functional
T5 sequence (P25929 whole entry): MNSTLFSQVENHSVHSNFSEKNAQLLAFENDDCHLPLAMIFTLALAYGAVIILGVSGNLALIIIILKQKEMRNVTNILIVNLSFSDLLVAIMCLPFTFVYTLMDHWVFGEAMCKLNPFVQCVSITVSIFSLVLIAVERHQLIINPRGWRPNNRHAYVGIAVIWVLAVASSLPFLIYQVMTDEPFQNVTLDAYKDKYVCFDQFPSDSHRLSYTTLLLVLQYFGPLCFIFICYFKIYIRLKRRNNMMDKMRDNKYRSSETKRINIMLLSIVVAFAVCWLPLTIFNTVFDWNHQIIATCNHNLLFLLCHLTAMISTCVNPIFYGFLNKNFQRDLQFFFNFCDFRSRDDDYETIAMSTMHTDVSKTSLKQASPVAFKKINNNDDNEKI

T3 sequence (Q07820 whole entry, the tested form may be a part): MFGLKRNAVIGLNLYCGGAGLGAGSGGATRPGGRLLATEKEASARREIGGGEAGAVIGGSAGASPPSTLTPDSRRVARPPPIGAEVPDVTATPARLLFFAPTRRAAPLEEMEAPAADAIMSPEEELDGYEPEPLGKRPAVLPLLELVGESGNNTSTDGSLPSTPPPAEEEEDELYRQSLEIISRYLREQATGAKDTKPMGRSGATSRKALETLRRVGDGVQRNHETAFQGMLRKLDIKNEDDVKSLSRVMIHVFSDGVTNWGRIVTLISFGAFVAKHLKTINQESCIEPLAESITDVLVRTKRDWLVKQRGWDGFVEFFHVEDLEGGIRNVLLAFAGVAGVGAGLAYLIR
Peroxisome proliferator-activated receptor gamma/Nuclear receptor corepressor 2, sequence (P37231 whole entry): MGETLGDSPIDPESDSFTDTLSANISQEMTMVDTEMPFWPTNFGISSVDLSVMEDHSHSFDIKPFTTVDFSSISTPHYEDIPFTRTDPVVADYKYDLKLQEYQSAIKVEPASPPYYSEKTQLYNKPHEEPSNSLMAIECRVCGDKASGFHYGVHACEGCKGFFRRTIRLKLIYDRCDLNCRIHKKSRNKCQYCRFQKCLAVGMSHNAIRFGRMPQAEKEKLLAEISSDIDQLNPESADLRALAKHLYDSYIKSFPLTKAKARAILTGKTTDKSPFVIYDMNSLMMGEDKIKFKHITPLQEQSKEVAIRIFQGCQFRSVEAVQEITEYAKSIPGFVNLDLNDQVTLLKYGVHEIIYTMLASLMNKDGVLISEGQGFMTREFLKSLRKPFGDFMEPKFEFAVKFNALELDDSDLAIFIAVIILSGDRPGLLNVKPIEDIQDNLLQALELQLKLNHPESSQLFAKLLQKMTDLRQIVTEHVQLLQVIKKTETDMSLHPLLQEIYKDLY
Peroxisome proliferator-activated receptor gamma/Nuclear receptor corepressor 2, sequence (Q9Y618 whole entry): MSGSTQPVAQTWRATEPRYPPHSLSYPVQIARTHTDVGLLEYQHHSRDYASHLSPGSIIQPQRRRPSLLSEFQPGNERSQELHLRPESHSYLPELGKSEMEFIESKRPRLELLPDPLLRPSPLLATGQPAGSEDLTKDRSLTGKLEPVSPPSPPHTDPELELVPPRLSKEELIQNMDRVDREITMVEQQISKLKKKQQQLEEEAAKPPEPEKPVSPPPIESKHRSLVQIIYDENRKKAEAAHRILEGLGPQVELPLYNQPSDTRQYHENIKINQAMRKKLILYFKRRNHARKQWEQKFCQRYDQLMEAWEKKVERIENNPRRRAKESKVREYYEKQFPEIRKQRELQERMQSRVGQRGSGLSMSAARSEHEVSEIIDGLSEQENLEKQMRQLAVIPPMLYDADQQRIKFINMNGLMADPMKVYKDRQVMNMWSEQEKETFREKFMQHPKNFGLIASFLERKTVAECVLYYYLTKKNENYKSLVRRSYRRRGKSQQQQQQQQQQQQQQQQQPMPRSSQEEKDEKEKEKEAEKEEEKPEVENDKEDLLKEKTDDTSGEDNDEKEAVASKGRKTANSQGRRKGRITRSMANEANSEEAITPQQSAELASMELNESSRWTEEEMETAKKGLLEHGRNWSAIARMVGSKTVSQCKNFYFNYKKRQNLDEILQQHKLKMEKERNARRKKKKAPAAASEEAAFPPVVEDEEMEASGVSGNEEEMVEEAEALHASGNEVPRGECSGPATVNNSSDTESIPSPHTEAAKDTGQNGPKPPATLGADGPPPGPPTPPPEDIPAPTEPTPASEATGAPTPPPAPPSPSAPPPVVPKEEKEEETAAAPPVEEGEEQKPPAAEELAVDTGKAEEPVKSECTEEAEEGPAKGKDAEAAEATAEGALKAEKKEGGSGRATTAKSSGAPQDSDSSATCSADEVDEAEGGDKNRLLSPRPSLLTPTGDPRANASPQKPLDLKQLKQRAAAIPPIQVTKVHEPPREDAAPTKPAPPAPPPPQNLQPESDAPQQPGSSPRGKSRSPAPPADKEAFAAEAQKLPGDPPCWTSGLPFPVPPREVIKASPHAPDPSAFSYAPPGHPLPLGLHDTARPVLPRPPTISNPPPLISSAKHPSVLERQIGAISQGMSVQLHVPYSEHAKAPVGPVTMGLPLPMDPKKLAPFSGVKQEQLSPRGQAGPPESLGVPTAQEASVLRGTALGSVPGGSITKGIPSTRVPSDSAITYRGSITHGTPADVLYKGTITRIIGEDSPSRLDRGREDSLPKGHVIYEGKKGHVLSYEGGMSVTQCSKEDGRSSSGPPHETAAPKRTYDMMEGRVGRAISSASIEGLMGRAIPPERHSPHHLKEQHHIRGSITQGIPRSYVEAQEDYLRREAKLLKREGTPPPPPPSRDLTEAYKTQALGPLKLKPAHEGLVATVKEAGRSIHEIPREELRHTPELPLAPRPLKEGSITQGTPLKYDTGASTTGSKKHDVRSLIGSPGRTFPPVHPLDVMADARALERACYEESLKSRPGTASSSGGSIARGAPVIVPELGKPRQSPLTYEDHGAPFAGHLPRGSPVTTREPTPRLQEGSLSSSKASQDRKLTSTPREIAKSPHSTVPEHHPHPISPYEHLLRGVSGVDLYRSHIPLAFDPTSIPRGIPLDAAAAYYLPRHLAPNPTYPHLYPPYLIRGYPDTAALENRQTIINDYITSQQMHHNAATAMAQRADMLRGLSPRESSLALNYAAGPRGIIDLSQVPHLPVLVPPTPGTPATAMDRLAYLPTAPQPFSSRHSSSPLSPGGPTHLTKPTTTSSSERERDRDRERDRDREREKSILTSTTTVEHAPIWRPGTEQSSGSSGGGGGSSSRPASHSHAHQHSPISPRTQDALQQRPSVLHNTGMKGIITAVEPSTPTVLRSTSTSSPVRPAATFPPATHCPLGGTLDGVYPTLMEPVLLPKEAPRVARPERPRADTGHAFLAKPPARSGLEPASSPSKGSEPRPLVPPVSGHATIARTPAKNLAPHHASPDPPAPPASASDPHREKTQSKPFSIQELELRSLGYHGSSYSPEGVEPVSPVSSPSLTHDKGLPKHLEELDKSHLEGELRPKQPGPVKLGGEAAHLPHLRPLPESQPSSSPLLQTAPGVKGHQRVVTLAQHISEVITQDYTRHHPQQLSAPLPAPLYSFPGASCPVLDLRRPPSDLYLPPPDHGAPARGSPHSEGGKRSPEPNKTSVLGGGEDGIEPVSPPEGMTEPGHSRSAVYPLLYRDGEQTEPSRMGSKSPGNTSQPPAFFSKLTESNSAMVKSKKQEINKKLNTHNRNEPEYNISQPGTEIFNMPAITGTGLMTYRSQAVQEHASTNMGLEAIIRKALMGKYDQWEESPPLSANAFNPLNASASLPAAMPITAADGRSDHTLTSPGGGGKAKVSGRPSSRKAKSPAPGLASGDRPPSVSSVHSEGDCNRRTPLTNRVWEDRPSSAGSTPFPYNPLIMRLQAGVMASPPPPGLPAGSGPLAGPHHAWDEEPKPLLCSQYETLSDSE
Photoreceptor-specific nuclear receptor, sequence (Q9Y5X4 whole entry): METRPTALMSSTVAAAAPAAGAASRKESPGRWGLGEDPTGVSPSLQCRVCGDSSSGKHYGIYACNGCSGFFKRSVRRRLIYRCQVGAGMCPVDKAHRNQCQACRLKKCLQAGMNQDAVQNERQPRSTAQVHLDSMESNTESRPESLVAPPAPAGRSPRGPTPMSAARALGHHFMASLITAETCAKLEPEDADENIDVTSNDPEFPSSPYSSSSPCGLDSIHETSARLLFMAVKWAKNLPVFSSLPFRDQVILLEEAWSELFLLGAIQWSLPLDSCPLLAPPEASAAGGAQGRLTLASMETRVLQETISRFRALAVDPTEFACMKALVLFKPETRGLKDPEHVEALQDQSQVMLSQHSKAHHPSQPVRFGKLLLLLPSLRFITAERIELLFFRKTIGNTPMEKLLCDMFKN
Bcl-2-like protein 10, sequence (Q9HD36 whole entry): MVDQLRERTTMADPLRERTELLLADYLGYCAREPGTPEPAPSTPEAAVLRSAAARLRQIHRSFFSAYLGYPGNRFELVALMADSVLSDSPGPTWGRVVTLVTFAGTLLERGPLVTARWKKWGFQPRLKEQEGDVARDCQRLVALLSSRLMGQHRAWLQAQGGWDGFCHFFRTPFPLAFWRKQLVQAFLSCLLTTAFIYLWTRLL
Bcl-2-like protein 1, sequence (Q07817 whole entry): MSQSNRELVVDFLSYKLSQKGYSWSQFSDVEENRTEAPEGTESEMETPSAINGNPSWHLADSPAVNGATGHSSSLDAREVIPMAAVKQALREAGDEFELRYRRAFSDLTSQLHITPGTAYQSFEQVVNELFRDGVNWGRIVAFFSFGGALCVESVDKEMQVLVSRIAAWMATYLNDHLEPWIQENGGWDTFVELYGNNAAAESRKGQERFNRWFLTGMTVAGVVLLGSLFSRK

## Cc1cccc(NC(=O)CSc2ncnc3c2oc2ccccc23)c1
[1]
  IC50: > 39.8 µM (not active)
[2]
  IC50: 3.35 µM (active)

## O=C1C=Cc2ccccc2C1=O [1,2-NAPHTHOQUINONE]
[3]
  AC50: 5.81 µM (active)
Protein RecA
  EC50: 9.13 µM (active)
[4]
  EC50: > 100 µM (active)

## O=[N+]([O-])c1cc(Cl)cc(/C=N/NC(=S)Nc2cc(S(=O)(=O)N3CCOCC3)ccc2Cl)c1O
Bcl-2-like protein 1
  IC50: > 109 µM (not active)
[5]
  IC50: 2.19 µM (active)
[6]
  IC50: 25.1 µM (active)
[7]
  CC50: 25.7 µM (active)
[8]
  IC50: 49.3 µM (not active)

## O=C(O)c1cccc2c1NC(c1cccc(Cl)c1Cl)C1CC=CC21 (centres undefined)
Bcl-2-like protein 10
  EC50: 2.67 µM (active)

## CCCOc1ccc(/C=N/Nc2ccc(C(=O)O)cc2)c(OCCC)c1
[9]
  EC50: 26.3 µM (not active)
HEK293
  EC50: 11.4 µM (not active)
[10]
  EC50: 16.5 µM (not active)
